Assay results taken from ChEMBL document CHEMBL4476883, “Hydroxy formamide derivatives and their use” (2017).

Experiments:
[1] = target: T1, Bone morphogenetic protein 1 (Homo sapiens, UniProt P13497); assay: Inhibition of C-terminal FLAG-6x-His epitope tagged and N-terminal human RAGE signal sequence tagged human BMP1 (23 to 721 amino acids) expressed in CHO-E1A cells pre-incubated for 10 mins before promyostatin peptide substrate addition and measured after 60 mins using 0.5 nM BMP1 by FRET based assay; format: cell-based
T1 sequence (P13497 whole entry): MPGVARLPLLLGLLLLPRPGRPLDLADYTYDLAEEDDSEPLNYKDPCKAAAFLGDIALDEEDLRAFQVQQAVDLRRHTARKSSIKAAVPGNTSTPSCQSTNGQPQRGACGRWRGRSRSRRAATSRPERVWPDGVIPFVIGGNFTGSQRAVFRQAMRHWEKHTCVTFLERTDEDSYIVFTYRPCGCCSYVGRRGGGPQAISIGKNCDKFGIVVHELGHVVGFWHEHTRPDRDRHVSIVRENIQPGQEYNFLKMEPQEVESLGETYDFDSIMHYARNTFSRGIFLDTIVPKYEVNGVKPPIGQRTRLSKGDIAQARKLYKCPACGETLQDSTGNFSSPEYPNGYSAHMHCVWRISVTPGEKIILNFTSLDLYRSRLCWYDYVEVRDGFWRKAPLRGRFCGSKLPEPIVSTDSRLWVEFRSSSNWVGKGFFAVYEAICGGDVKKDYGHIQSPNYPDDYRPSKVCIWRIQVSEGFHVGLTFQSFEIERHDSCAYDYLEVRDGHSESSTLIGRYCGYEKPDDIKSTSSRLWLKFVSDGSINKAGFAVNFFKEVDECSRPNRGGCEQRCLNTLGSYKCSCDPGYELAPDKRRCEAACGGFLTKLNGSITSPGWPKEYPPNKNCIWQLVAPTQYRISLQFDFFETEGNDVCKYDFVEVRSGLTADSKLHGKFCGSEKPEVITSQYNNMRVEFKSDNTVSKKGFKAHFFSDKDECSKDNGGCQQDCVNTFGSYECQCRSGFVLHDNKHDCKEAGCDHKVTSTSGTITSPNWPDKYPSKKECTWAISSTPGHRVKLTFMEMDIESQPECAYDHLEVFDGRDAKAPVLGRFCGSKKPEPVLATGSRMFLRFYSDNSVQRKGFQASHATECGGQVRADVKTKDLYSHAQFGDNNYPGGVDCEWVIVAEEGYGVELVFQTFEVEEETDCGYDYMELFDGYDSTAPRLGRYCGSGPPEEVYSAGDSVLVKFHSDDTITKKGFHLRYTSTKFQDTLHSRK

[2] = target: T1, Bone morphogenetic protein 1; assay: Inhibition of C-terminal FLAG-6x-His epitope tagged and N-terminal human RAGE signal sequence tagged human BMP1 (23 to 721 amino acids) expressed in CHO-E1A cells pre-incubated for 10 mins before promyostatin peptide substrate addition and measured after 30 mins using 50 nM BMP1 by FRET based assay; format: cell-based
Tolloid-like protein 1 = Tolloid-like protein 1 (Homo sapiens, UniProt O43897, I156V/N221S/V284A); assay: Inhibition of recombinant human TLL1 I156V/N221S/V284A mutant expressed in CHOE1A cells pre-incubated for 10 mins before promyostatin peptide substrate addition and measured after 60 mins by FRET based assay; format: cell-based
Tolloid-like protein 2 = target: T2, Tolloid-like protein 2 (Homo sapiens, UniProt Q9Y6L7); assay: Inhibition of C-terminal Avi-6x-His epitope tagged and N-terminal human RAGE signal sequence tagged recombinant human TLL2 (26 to 1015 amino acids) expressed in CHOE1A cells incubated for 60 mins with promyostatin peptide substrate by FRET based assay; format: cell-based
T2 sequence (Q9Y6L7 whole entry): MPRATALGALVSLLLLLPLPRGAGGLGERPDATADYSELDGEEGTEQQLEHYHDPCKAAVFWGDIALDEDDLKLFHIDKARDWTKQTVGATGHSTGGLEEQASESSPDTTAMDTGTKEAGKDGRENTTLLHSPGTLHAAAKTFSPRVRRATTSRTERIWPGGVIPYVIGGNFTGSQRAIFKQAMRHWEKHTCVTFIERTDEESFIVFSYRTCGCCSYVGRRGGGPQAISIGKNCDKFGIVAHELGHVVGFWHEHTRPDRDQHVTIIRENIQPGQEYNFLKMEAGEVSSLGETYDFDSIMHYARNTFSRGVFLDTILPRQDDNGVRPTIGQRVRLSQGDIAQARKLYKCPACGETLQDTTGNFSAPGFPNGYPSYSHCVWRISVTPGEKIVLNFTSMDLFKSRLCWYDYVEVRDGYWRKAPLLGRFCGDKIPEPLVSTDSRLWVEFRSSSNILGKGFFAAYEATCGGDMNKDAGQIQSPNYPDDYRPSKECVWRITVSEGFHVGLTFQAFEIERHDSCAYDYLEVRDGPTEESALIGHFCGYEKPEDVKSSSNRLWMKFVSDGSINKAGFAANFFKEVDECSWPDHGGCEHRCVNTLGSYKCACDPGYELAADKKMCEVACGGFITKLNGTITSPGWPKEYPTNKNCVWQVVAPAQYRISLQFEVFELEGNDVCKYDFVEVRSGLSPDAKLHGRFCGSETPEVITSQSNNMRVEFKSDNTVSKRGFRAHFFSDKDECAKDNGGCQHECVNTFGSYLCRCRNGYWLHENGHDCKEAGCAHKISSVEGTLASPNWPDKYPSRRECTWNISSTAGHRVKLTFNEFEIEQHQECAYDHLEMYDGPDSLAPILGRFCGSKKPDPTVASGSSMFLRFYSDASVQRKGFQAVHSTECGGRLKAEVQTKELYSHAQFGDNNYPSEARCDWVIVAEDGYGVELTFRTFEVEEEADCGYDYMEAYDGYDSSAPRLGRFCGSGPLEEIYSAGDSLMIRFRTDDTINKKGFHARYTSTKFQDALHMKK

[3] = Reduction in PICP levels in human cardiac fibroblasts incubated for 24 to 48 hrs by ELISA; format: functional

Tolloid-like protein 1, sequence (O43897 148-1013 I156V/N221S/V284A limits assumed): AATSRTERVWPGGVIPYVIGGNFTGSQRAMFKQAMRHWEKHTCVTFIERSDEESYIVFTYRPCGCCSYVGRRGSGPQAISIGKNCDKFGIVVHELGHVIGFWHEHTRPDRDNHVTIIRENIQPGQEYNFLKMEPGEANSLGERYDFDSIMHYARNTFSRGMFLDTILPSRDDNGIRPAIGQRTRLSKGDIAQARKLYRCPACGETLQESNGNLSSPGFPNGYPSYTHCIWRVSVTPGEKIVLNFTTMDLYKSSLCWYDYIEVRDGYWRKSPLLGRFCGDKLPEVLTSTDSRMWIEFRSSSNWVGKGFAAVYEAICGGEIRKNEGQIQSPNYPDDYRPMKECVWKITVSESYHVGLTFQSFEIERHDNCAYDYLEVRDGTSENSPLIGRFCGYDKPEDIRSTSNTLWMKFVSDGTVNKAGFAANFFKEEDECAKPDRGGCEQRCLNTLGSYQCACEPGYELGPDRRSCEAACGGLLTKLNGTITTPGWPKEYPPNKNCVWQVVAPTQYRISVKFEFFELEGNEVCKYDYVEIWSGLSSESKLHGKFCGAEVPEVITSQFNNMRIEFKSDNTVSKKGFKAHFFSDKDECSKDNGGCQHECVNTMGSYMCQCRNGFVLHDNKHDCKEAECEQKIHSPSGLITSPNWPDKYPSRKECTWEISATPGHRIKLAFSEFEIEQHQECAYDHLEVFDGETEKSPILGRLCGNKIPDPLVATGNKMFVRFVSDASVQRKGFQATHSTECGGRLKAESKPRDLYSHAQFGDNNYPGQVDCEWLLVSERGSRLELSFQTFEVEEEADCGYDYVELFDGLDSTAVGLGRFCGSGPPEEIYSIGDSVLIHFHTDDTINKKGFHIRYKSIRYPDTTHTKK

Row | SMILES | IC50 [1] | IC50 [2] | IC50 (Tolloid-like protein 1) | IC50 (Tolloid-like protein 2) | IC50 [3]
1 | CCCCC[C@H](CN(O)C=O)C(=O)NCNC(=O)c1cccc(-c2cc(OCC)cc(C(=O)O)c2)n1 | < 126 nM | < 251 nM | < 398 nM | < 631 nM | < 20000 nM
2 | O=CN(O)C[C@@H](CC1CCCC1)C(=O)NCNC(=O)c1cccc(-c2ccc(C(F)(F)F)cc2)c1 | < 126 nM | < 251 nM | < 398 nM | < 631 nM | < 20000 nM
3 | CCCCC[C@@H](C(=O)NCNC(=O)c1cncc(-c2ccc(C(=O)O)c(OCC)c2)n1)[C@@H](CC)N(O)C=O | < 126 nM | < 251 nM | < 398 nM | < 631 nM | < 20000 nM
4 | CCCCC[C@@H](C(=O)NCNC(=O)c1cccc(-c2ccc(C(=O)O)c(OCC)c2)c1)[C@@H](CC)N(O)C=O | < 126 nM | < 251 nM | < 398 nM | < 631 nM | < 20000 nM
5 | CCCCC[C@H](CN(O)C=O)C(=O)NCNC(=O)c1cccc(-c2cc(OC)ccc2F)c1F | < 126 nM | < 251 nM | < 398 nM | < 631 nM | < 20000 nM
6 | CCCCC[C@@H](C(=O)NCNC(=O)c1cccc(-c2cc(C(=O)OCC)cc(S(N)(=O)=O)c2)n1)[C@@H](CC)N(O)C=O | < 126 nM | < 251 nM | < 398 nM | < 631 nM | < 20000 nM
7 | CCCCC[C@H](CN(O)C=O)C(=O)NCNC(=O)c1cccc(-c2cccc(OC(C)C)c2)c1 | < 126 nM | < 251 nM | < 398 nM | < 631 nM | < 20000 nM
8 | CCCCC[C@@H](C(=O)NCNC(=O)c1cccc(-c2cc(OCC(=O)O)cc(C(=O)O)c2)n1)[C@@H](CC)N(O)C=O | < 126 nM | < 251 nM | < 398 nM | < 631 nM | < 20000 nM
9 | CCCCC[C@H](CN(O)C=O)C(=O)NCNC(=O)c1cccc(-c2cccc(C(=O)O)c2)c1 | < 126 nM | < 251 nM | < 398 nM | < 631 nM | < 20000 nM
10 | CCCCC[C@@H](C(=O)NCNC(=O)c1cccc(-c2cc(OCC)cc(C(=O)N[C@@H](CC(=O)O)C(=O)O)c2)n1)[C@@H](CC)N(O)C=O | < 126 nM | < 251 nM | < 398 nM | < 631 nM | < 20000 nM
11 | CCCCC[C@H](CN(O)C=O)C(=O)NCNC(=O)c1cccc(-c2cccc(OC)c2F)n1 | < 126 nM | < 251 nM | < 398 nM | < 631 nM | < 20000 nM
12 | CCCCC[C@H](CN(O)C=O)C(=O)NCNC(=O)c1cccc(-c2ccccc2)c1 | < 126 nM | < 251 nM | < 398 nM | < 631 nM | < 20000 nM
13 | CCCCC[C@H](CN(O)C=O)C(=O)NCNC(=O)c1cccc(-c2cccc(OC)n2)n1 | < 126 nM | < 251 nM | < 398 nM | < 631 nM | < 20000 nM
14 | CCCCC[C@H](CN(O)C=O)C(=O)NCNC(=O)c1cccc(-c2ccc(F)cc2F)n1 | < 126 nM | < 251 nM | < 398 nM | < 631 nM | < 20000 nM
15 | O=CN(O)C[C@@H](CC1CCCC1)C(=O)NCNC(=O)c1cccc(-c2cccc(C(F)(F)F)c2)c1 | < 126 nM | < 251 nM | < 398 nM | < 631 nM | < 20000 nM
16 | CCCCC[C@H](CN(O)C=O)C(=O)NCNC(=O)c1cccc(-c2ccc(OC)cc2)c1 | < 126 nM | < 251 nM | < 398 nM | < 631 nM | < 20000 nM
17 | COc1ccccc1-c1cccc(C(=O)NCNC(=O)[C@H](CC2CCCC2)CN(O)C=O)c1 | < 126 nM | < 251 nM | < 398 nM | < 631 nM | < 20000 nM
18 | CCCCC[C@@H](C(=O)NCNC(=O)c1cc(C(=O)O)cc(-c2ccccc2)c1)[C@@H](CC)N(O)C=O | < 126 nM | < 251 nM | < 398 nM | < 631 nM | < 20000 nM
19 | CCCCC[C@H](CN(O)C=O)C(=O)NCNC(=O)c1cccc(-c2cccc(C(C)C)c2)c1 | < 126 nM | < 251 nM | < 398 nM | < 631 nM | < 20000 nM
20 | CCCCC[C@H](CN(O)C=O)C(=O)NCNC(=O)c1cccc(-c2ccnc(OC)n2)c1 | < 126 nM | < 251 nM | < 398 nM | < 631 nM | < 20000 nM
21 | CCCCC[C@@H](C(=O)NCNC(=O)c1cccc(-c2ccc(C(=O)N(CC(=O)O)CC(=O)O)c(OCC)c2)n1)[C@@H](CC)N(O)C=O | < 126 nM | < 251 nM | < 398 nM | < 631 nM | < 20000 nM
22 | CCCCC[C@@H](C(=O)NCNC(=O)c1cccc(-c2ccc(C(=O)N[C@H](CC(=O)O)C(=O)O)cc2)n1)[C@@H](CC)N(O)C=O | < 126 nM | < 251 nM | < 398 nM | < 631 nM | < 20000 nM
23 | N#Cc1cccc(-c2cccc(C(=O)NCNC(=O)[C@H](CC3CCCC3)CN(O)C=O)c2)c1 | < 126 nM | < 251 nM | < 398 nM | < 631 nM | < 20000 nM
24 | CCCCC[C@@H](C(=O)NCNC(=O)c1cccc(-c2cc(OCC)cc(C(=O)N[C@@H](CC(=O)O)C(=O)O)c2)c1)[C@@H](CC)N(O)C=O | < 126 nM | < 251 nM | < 398 nM | < 631 nM | < 20000 nM
25 | CCCCC[C@@H](C(=O)NCNC(=O)c1cccc(-c2ccc(C(=O)NCP(=O)(O)O)c(C)c2)n1)[C@@H](CC)N(O)C=O | < 126 nM | < 251 nM | < 398 nM | < 631 nM | < 20000 nM
26 | CCCCC[C@H](CN(O)C=O)C(=O)NCNC(=O)c1cccc(-c2cccc(F)c2)c1 | < 126 nM | < 251 nM | < 398 nM | < 631 nM | < 20000 nM
27 | O=CN(O)C[C@@H](CC1CCCC1)C(=O)NCNC(=O)c1cccc(Oc2ccccc2)c1 | < 126 nM | < 251 nM | < 398 nM | < 631 nM | < 20000 nM
28 | COc1cncc(-c2cccc(C(=O)NCNC(=O)[C@H](CC3CCCC3)CN(O)C=O)c2)c1 | < 126 nM | < 251 nM | < 398 nM | < 631 nM | < 20000 nM
